Laboratory results published in patent US20240299359A1, “PHARMACEUTICAL COMPOSITION FOR ANIMALS CONTAINING 5-HYDROXY-METHYLIMIDAZOLIDINE-2,4-DIONE COMPOUND AS ACTIVE INGREDIENT” (KYONGBO PHARM. CO., LTD., priority 2021, published 2024).
Several values for one entry are separate records, joined by “and”; a condition that tells them apart may be missing. Equal entries are not always repeated.

Tested on: beagles
Assay: 13-week repeated oral toxicity: urine test
Assay type: in vivo, beagle
Details: for Acidity / Specific gravity / Creatinine UPC / Occult blood / Protein / Bilirubin: urine
Description: Urine tests were performed on the urine collected in the morning of blood donation day (Wednesday of the week) after fasting for about 16 hours, before administration, 4th week (day 29) after administration, the 8th week (day 57) after administration, and 13th week (day 92) after administration. Urine was collected from all the fasting subjects using a silicone tube connected to a duct after mounting a urine plate at the bottom of the cage for 16 hours. The collected urine was centrifuged at 1,500 rpm for 5 minutes to obtain the supernatant, then immersed in a urine strip (thinka Urine Test Strip, ARKRAY, Inc., Japan), the residue around the strip was removed, urine was analyzed using a urine analyzer (thinka RT-4010, ARKRAY, Inc., Japan), and the urine specific gravity of each subject was measured using a urine hydrometer (Master-URC.NM, ATAGO CO., LTD, Japan).

[1] = before administration, 200 mg/kg group, female, group mean
[2] = before administration, 200 mg/kg group, female, individual animal
[3] = before administration, 200 mg/kg group, female, individual animal, 200 mg/kg
[4] = before administration, 200 mg/kg group, male, group mean
[5] = before administration, 200 mg/kg group, male, individual animal
[6] = before administration, 200 mg/kg group, male, individual animal, 200 mg/kg
[7] = before administration, 500 mg/kg group, female, group mean
[8] = before administration, 500 mg/kg group, female, individual animal
[9] = before administration, 500 mg/kg group, female, individual animal, 500 mg/kg
[10] = before administration, 500 mg/kg group, male, group mean
[11] = before administration, 500 mg/kg group, male, individual animal
[12] = before administration, 500 mg/kg group, male, individual animal, 500 mg/kg
[13] = before administration, 1,000 mg/kg group, female, group mean
[14] = before administration, 1,000 mg/kg group, female, individual animal
[15] = before administration, 1,000 mg/kg group, male, group mean
[16] = before administration, 1,000 mg/kg group, male, individual animal
[17] = 200 mg/kg, females, repeated administration for 13 weeks, group Mean
[18] = 200 mg/kg, females, repeated administration for 13 weeks, individual animals
[19] = 200 mg/kg, males, repeated administration for 13 weeks, group Mean
[20] = 200 mg/kg, males, repeated administration for 13 weeks, individual animals
[21] = 500 mg/kg, females, repeated administration for 13 weeks, group Mean
[22] = 500 mg/kg, females, repeated administration for 13 weeks, individual animals
[23] = 500 mg/kg, males, repeated administration for 13 weeks, group Mean
[24] = 500 mg/kg, males, repeated administration for 13 weeks, individual animals
[25] = 1,000 mg/kg, females, repeated administration for 13 weeks, group Mean
[26] = 1,000 mg/kg, females, repeated administration for 13 weeks, individual animals
[27] = 1,000 mg/kg, males, repeated administration for 13 weeks, group Mean
[28] = 1,000 mg/kg, males, repeated administration for 13 weeks, individual animals

**Q.** With `CN1C(=O)NC(=O)C1O` (centres unmarked) [KBP-001, 5-hydroxy-1-methylimidazolidine-2,4-dione] as the compound, how does the “urine test items including urine specific gravity” value (before and after administration, 13 weeks) read?
**A.** fell within the normal physiological ranges

**Q.** And the Acidity [1]?
**A.** 7.833 PH

**Q.** And the Specific gravity [1]?
**A.** 1.03

**Q.** And the “Creatinine UPC” value [2]?
**A.** <0.20 mg(ratio)

**Q.** What about the Occult blood [2] of the same compound?
**A.** 0.03(+−) RBC/dl

**Q.** And the Acidity [3]?
**A.** 8.0 PH and 7.0 PH and 8.5 PH

**Q.** What about the Specific gravity [3] of the same compound?
**A.** 1.02 (2×) and 1.04

**Q.** And the Acidity [4]?
**A.** 8.000 PH

**Q.** And the Specific gravity [4]?
**A.** 1.03

**Q.** What about the “Creatinine UPC” value [5] of the same compound?
**A.** <0.20 mg(ratio)

**Q.** And the Protein [5]?
**A.** 15(+−)

**Q.** What about the Acidity [6] of the same compound?
**A.** 8.0 PH and 7.0 PH and 9.0 PH

**Q.** And the Specific gravity [6]?
**A.** 1.03

**Q.** What about the Acidity [7] of the same compound?
**A.** 6.833 PH

**Q.** What about the Specific gravity [7] of the same compound?
**A.** 1.02

**Q.** And the “Creatinine UPC” value [8]?
**A.** <0.20 mg(ratio)

**Q.** What about the Occult blood [8] of the same compound?
**A.** 0.03(+−) RBC/dl

**Q.** What about the Acidity [9] of the same compound?
**A.** 6.5 PH and 7.0 PH (2×)

**Q.** What about the Specific gravity [9] of the same compound?
**A.** 1.02

**Q.** And the Acidity [10]?
**A.** 8.167 PH

**Q.** And the Specific gravity [10]?
**A.** 1.03

**Q.** And the Bilirubin [11]?
**A.** 0.5(1+)

**Q.** What about the “Creatinine UPC” value [11] of the same compound?
**A.** <0.20 mg(ratio)

**Q.** What about the Acidity [12] of the same compound?
**A.** 8.5 PH (2×) and 7.5 PH

**Q.** What about the Specific gravity [12] of the same compound?
**A.** 1.03 (2×) and 1.04

**Q.** What about the Acidity [13] of the same compound?
**A.** 7.667 PH

**Q.** What about the Specific gravity [13] of the same compound?
**A.** 1.03

**Q.** What about the Acidity [14] of the same compound?
**A.** 8.0 PH and 7.5 PH (2×)

**Q.** And the “Creatinine UPC” value [14]?
**A.** <0.20 mg(ratio)

**Q.** What about the Specific gravity [14] of the same compound?
**A.** 1.04 and 1.02 (2×)

**Q.** And the Acidity [15]?
**A.** 8.000 PH

**Q.** What about the Specific gravity [15] of the same compound?
**A.** 1.03

**Q.** What about the Acidity [16] of the same compound?
**A.** 8.0 PH and 9.0 PH and 7.0 PH

**Q.** And the Bilirubin [16]?
**A.** 0.5(1+)

**Q.** And the “Creatinine UPC” value [16]?
**A.** <0.20 mg(ratio)

**Q.** And the Occult blood [16]?
**A.** 0.06(1+) RBC/dl

**Q.** And the Specific gravity [16]?
**A.** 1.03 and 1.02 and 1.04

**Q.** And the Acidity [17]?
**A.** 7.333 PH

**Q.** And the Specific gravity [17]?
**A.** 1.03

**Q.** And the Acidity [18]?
**A.** 7.0 PH (2×) and 8.0 PH

**Q.** What about the “Creatinine UPC” value [18] of the same compound?
**A.** <0.20 mg(ratio)

**Q.** What about the Acidity [19] of the same compound?
**A.** 8.567 PH

**Q.** And the Specific gravity [19]?
**A.** 1.04

**Q.** What about the Acidity [20] of the same compound?
**A.** 8.0 PH and 9.0 PH (2×)

**Q.** And the Bilirubin [20]?
**A.** 0.5(1+)

**Q.** What about the “Creatinine UPC” value [20] of the same compound?
**A.** <0.20 mg(ratio)

**Q.** What about the Protein [20] of the same compound?
**A.** 15(+−)

**Q.** And the Specific gravity [20]?
**A.** 1.04 and 1.05 and 1.02

**Q.** And the Acidity [21]?
**A.** 8.500 PH

**Q.** And the Specific gravity [21]?
**A.** 1.03

**Q.** What about the Acidity [22] of the same compound?
**A.** 9.0 PH and 8.5 PH and 8.0 PH

**Q.** And the “Creatinine UPC” value [22]?
**A.** <0.20 mg(ratio)

**Q.** And the Specific gravity [22]?
**A.** 1.04 (2×) and 1.02

**Q.** And the Acidity [23]?
**A.** 8.500 PH

**Q.** What about the Specific gravity [23] of the same compound?
**A.** 1.04

**Q.** And the Acidity [24]?
**A.** 9.0 PH (2×) and 7.5 PH

**Q.** And the “Creatinine UPC” value [24]?
**A.** <0.20 mg(ratio)

**Q.** What about the Protein [24] of the same compound?
**A.** 15(+−)

**Q.** And the Specific gravity [24]?
**A.** 1.05 and 1.02 and 1.04

**Q.** What about the Acidity [25] of the same compound?
**A.** 7.667 PH

**Q.** What about the Specific gravity [25] of the same compound?
**A.** 1.03

**Q.** What about the Acidity [26] of the same compound?
**A.** 8.0 PH and 7.5 PH (2×)

**Q.** What about the “Creatinine UPC” value [26] of the same compound?
**A.** <0.20 mg(ratio)

**Q.** What about the Specific gravity [26] of the same compound?
**A.** 1.05 and 1.03 and 1.02

**Q.** And the Acidity [27]?
**A.** 7.833 PH

**Q.** And the Specific gravity [27]?
**A.** 1.03

**Q.** And the Acidity [28]?
**A.** 9.0 PH and 7.0 PH and 7.5 PH

**Q.** What about the “Creatinine UPC” value [28] of the same compound?
**A.** <0.20 mg(ratio)

**Q.** What about the Occult blood [28] of the same compound?
**A.** 0.06(1+) RBC/dl and 0.03(+−) RBC/dl

**Q.** And the Protein [28]?
**A.** 15(+−)

**Q.** And the Specific gravity [28]?
**A.** 1.04 and 1.02 and 1.03
